Test results from BigSolDB 2.1.

CC(=O)Nc1ccc(O)cc1
in 1,4-dioxane
Conditions | solubility (mole fraction)
334.55 K | 0.037
335.35 K | 0.039
336.65 K | 0.042
336.95 K | 0.042
337.25 K | 0.043
337.85 K | 0.045

O=C(Oc1ccccc1C(=O)O)c1ccccc1O
Conditions | solubility (mole fraction)
in 1,4-dioxane, 324.45 K | 0.263
in 1,4-dioxane, 326.55 K | 0.268
in 1,4-dioxane, 330.35 K | 0.278
in 1,4-dioxane, 332.55 K | 0.284
in 1,4-dioxane, 334.95 K | 0.291
in 1,4-dioxane, 337.35 K | 0.298
in cyclopentyl methyl ether, 319.75 K | 0.148
in cyclopentyl methyl ether, 323.25 K | 0.156
in cyclopentyl methyl ether, 323.95 K | 0.158
in cyclopentyl methyl ether, 325.65 K | 0.16
in cyclopentyl methyl ether, 327.75 K | 0.166
in cyclopentyl methyl ether, 329.95 K | 0.17
in cyclopentyl methyl ether, 333.95 K | 0.176
in toluene, 327.75 K | 0.016
in toluene, 329.25 K | 0.017
in toluene, 333.45 K | 0.019
in toluene, 335.25 K | 0.021
in toluene, 335.95 K | 0.022

O=C(O)c1ccc(O)cc1
in 1,4-dioxane
Conditions | solubility (mole fraction)
299.65 K | 0.08
304.15 K | 0.088
311.15 K | 0.102
315.75 K | 0.111
319.95 K | 0.119
324.55 K | 0.131

Nc1ccc(C(=O)O)cc1
in 1,4-dioxane
Conditions | solubility (mole fraction)
298.25 K | 0.068
301.25 K | 0.073
304.65 K | 0.08
311.55 K | 0.094
317.75 K | 0.108
320.65 K | 0.116
324.85 K | 0.127
326.35 K | 0.131

c1ccc2nc3ccccc3nc2c1
Conditions | solubility (mole fraction)
in 1,4-dioxane, 302.55 K | 0.031
in 1,4-dioxane, 305.55 K | 0.033
in 1,4-dioxane, 306.05 K | 0.034
in 1,4-dioxane, 308.85 K | 0.038
in 1,4-dioxane, 312.45 K | 0.04
in 1,4-dioxane, 313.55 K | 0.043
in 1,4-dioxane, 318.75 K | 0.049
in cyclopentyl methyl ether, 301.15 K | 0.022
in cyclopentyl methyl ether, 305.75 K | 0.026
in cyclopentyl methyl ether, 310.05 K | 0.029
in cyclopentyl methyl ether, 314.05 K | 0.033
in cyclopentyl methyl ether, 318.25 K | 0.039
in cyclopentyl methyl ether, 326.85 K | 0.047
in toluene, 282.95 K | 0.015
in toluene, 289.85 K | 0.02
in toluene, 294.25 K | 0.022
in toluene, 297.95 K | 0.025
in toluene, 301.35 K | 0.027
in toluene, 312.55 K | 0.039
in toluene, 318.25 K | 0.046
in toluene, 322.35 K | 0.053
in toluene, 328.75 K | 0.062

O=C(O)c1ccc([N+](=O)[O-])cc1
in 1,4-dioxane
Conditions | solubility (mole fraction)
296.95 K | 0.036
303.25 K | 0.048
306.25 K | 0.053
310.85 K | 0.062
314.65 K | 0.07
319.35 K | 0.08

NC(=O)c1ccncc1
in 1,4-dioxane
Conditions | solubility (mole fraction)
298.55 K | 0.014
301.45 K | 0.015
303.15 K | 0.016
305.05 K | 0.017
306.45 K | 0.018
308.25 K | 0.019
309.15 K | 0.02
309.35 K | 0.02
312.15 K | 0.023
314.05 K | 0.024
315.35 K | 0.026
319.45 K | 0.028
325.55 K | 0.036

CC(=O)Oc1ccccc1C(=O)O
Conditions | solubility (mole fraction)
in 1,4-dioxane, 309.35 K | 0.164
in 1,4-dioxane, 312.05 K | 0.171
in 1,4-dioxane, 315.55 K | 0.183
in 1,4-dioxane, 317.65 K | 0.191
in 1,4-dioxane, 325.75 K | 0.218
in 1,4-dioxane, 330.05 K | 0.236
in 1,4-dioxane, 331.45 K | 0.246
in 1,4-dioxane, 332.55 K | 0.258
in cyclopentyl methyl ether, 313.05 K | 0.055
in cyclopentyl methyl ether, 314.25 K | 0.057
in cyclopentyl methyl ether, 316.35 K | 0.059
in cyclopentyl methyl ether, 319.05 K | 0.064
in cyclopentyl methyl ether, 320.55 K | 0.068
in cyclopentyl methyl ether, 322.85 K | 0.074
in cyclopentyl methyl ether, 325.75 K | 0.079
in toluene, 321.25 K | 0.008
in toluene, 326.65 K | 0.01
in toluene, 327.15 K | 0.011
in toluene, 327.85 K | 0.011
in toluene, 330.15 K | 0.014

Nc1ccccc1C(=O)O
Conditions | solubility (mole fraction)
in 1,4-dioxane, 295.65 K | 0.251
in 1,4-dioxane, 304.55 K | 0.275
in 1,4-dioxane, 308.35 K | 0.287
in 1,4-dioxane, 320.85 K | 0.334
in 1,4-dioxane, 324.85 K | 0.338
in cyclopentyl methyl ether, 297.85 K | 0.137
in cyclopentyl methyl ether, 308.45 K | 0.155
in cyclopentyl methyl ether, 315.55 K | 0.171
in cyclopentyl methyl ether, 325.25 K | 0.194
in cyclopentyl methyl ether, 334.25 K | 0.223
in toluene, 295.55 K | 0.007
in toluene, 306.95 K | 0.012
in toluene, 308.85 K | 0.013
in toluene, 312.65 K | 0.015
in toluene, 316.75 K | 0.018
in toluene, 322.25 K | 0.024
in toluene, 325.95 K | 0.026
in toluene, 326.05 K | 0.026

O=C(O)c1cccc(O)c1
in 1,4-dioxane
Conditions | solubility (mole fraction)
305.35 K | 0.188
308.85 K | 0.194
310.85 K | 0.197
312.95 K | 0.204
313.05 K | 0.203
316.75 K | 0.211
318.75 K | 0.214
321.45 K | 0.219
325.35 K | 0.227

NC(=O)c1cccnc1
in 1,4-dioxane
Conditions | solubility (mole fraction)
307.25 K | 0.025
309.95 K | 0.027
311.55 K | 0.029
313.35 K | 0.031
315.45 K | 0.033

NC(=O)N1c2ccccc2C=Cc2ccccc21
Conditions | solubility (mole fraction)
in 1,4-dioxane, 310.35 K | 0.022
in 1,4-dioxane, 319.95 K | 0.032
in 1,4-dioxane, 323.55 K | 0.036
in 1,4-dioxane, 327.95 K | 0.043
in 1,4-dioxane, 329.75 K | 0.047
in 1,4-dioxane, 332.45 K | 0.052
in 1,4-dioxane, 332.95 K | 0.054
in cyclopentyl methyl ether, 308.15 K | 0.002
in cyclopentyl methyl ether, 315.15 K | 0.002
in cyclopentyl methyl ether, 323.75 K | 0.003
in cyclopentyl methyl ether, 331.45 K | 0.004
in cyclopentyl methyl ether, 332.45 K | 0.004
in toluene, 301.85 K | 0.001
in toluene, 313.95 K | 0.002
in toluene, 319.65 K | 0.003
in toluene, 325.35 K | 0.004
in toluene, 328.55 K | 0.004
in toluene, 332.15 K | 0.005
in toluene, 335.35 K | 0.006

O=C(O)c1ccccc1O
Conditions | solubility (mole fraction)
in 1,4-dioxane, 316.85 K | 0.323
in 1,4-dioxane, 321.55 K | 0.337
in 1,4-dioxane, 325.55 K | 0.35
in 1,4-dioxane, 330.85 K | 0.365
in cyclopentyl methyl ether, 316.75 K | 0.252
in cyclopentyl methyl ether, 322.85 K | 0.264
in cyclopentyl methyl ether, 330.55 K | 0.28
in cyclopentyl methyl ether, 333.05 K | 0.289
in cyclopentyl methyl ether, 337.25 K | 0.299
in toluene, 305.65 K | 0.007
in toluene, 314.15 K | 0.011
in toluene, 323.45 K | 0.017
in toluene, 326.85 K | 0.019
in toluene, 329.05 K | 0.021
in toluene, 332.25 K | 0.025
in toluene, 333.35 K | 0.027
